Assay results from US20030129629A1, “Methods and compositions for the identification, assessment, prevention, and therapy of human cancers” (Millennium Pharmaceuticals, Inc., priority 2000, published 2003).
Like-named read-outs stand apart in the source and are kept apart here.

What was measured:
[1] = system: 60 cancer cell lines (NCI 60 cancer cell line series); details: cited from earlier work
[2] = system: 60 cancer cell lines (NCI 60 cancer cell line series); test: NCI-DTP in vitro cancer screen, sulforhodamine B (SRB) growth inhibition, 48 hour exposure; type: cell-based, human
Method in brief: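 Potency is given as mean −log{GI50} from dose–response curves, manually binned into Low, Medium or High sensitivity. Sixty NCI-DTP tumour lines were treated 48 h with a duplicate, five-dose, ten-fold dilution series, and growth read by SRB staining of cell mass.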

COc1cccc2c1C(=O)c1c(O)c3c(c(O)c1C2=O)C[C@@](O)(C(=O)CO)C[C@@H]3O[C@H]1C[C@H](N)[C@H](O)[C@H](C)O1 [Adriamycin]
6.6: −Log (GI50) ([1]; Melanoma SK-MEL-2 CL10005)
7.2: −Log (GI50) ([1]; NSCLC NCI-H226 CL1013)
3: classification of cell line as Low(1), Medium(2), High(3) sensitivity to compound ([2]; Breast MCF7(I) CL5001) | classification of cell line as Low(1), Medium(2), High(3) sensitivity to compound ([2]; Leukemia CCRF-CEM(I) CL7003) | classification of cell line as Low(1), Medium(2), High(3) sensitivity to compound ([2]; Leukemia MOLT-4 CL7006) | classification of cell line as Low(1), Medium(2), High(3) sensitivity to compound ([2]; Leukemia SR CL7019) | sensitivity classification Low(1)/Medium(2)/High(3) ([2]; NSCLC NCI-H460 CL1021)
2: classification of cell line as Low(1), Medium(2), High(3) sensitivity to compound ([2]; Breast BT-549 CL5013) | classification of cell line as Low(1), Medium(2), High(3) sensitivity to compound ([2]; Breast HS-578T CL5006) | classification of cell line as Low(1), Medium(2), High(3) sensitivity to compound ([2]; Breast MDA-MB-231 CL5005) | classification of cell line as Low(1), Medium(2), High(3) sensitivity to compound ([2]; Breast MDA-MB-435 CL5011) | classification of cell line as Low(1), Medium(2), High(3) sensitivity to compound ([2]; Breast MDA-N CL5012) | classification of cell line as Low(1), Medium(2), High(3) sensitivity to compound ([2]; Breast T-47D CL5014) | classification of cell line as Low(1), Medium(2), High(3) sensitivity to compound ([2]; CNS SF-268 CL12014) | classification of cell line as Low(1), Medium(2), High(3) sensitivity to compound ([2]; CNS SF-295 CL12015) | classification of cell line as Low(1), Medium(2), High(3) sensitivity to compound ([2]; CNS SF-539 CL12016) | classification of cell line as Low(1), Medium(2), High(3) sensitivity to compound ([2]; CNS SNB-19 CL12002) | classification of cell line as Low(1), Medium(2), High(3) sensitivity to compound ([2]; CNS SNB-75(I) CL12005) | classification of cell line as Low(1), Medium(2), High(3) sensitivity to compound ([2]; CNS U251(I) CL12009) | classification of cell line as Low(1), Medium(2), High(3) sensitivity to compound ([2]; Colon COLO-250 CL4010) | classification of cell line as Low(1), Medium(2), High(3) sensitivity to compound ([2]; Colon HCC-2998 CL4002) | classification of cell line as Low(1), Medium(2), High(3) sensitivity to compound ([2]; Colon HCT-116 CL4003) | classification of cell line as Low(1), Medium(2), High(3) sensitivity to compound ([2]; Colon HT29(I) CL4001) | classification of cell line as Low(1), Medium(2), High(3) sensitivity to compound ([2]; Colon KM12 CL4017) | classification of cell line as Low(1), Medium(2), High(3) sensitivity to compound ([2]; Colon SW-620 CL4009) | classification of cell line as Low(1), Medium(2), High(3) sensitivity to compound ([2]; Leukemia HL-60(I) CL7008) | classification of cell line as Low(1), Medium(2), High(3) sensitivity to compound ([2]; Leukemia K562(I) CL7005) | classification of cell line as Low(1), Medium(2), High(3) sensitivity to compound ([2]; Leukemia RPMI-8226(I) CL7010) | classification of cell line as Low(1), Medium(2), High(3) sensitivity to compound ([2]; Melanoma LOX IMVI CL10001) | classification of cell line as Low(1), Medium(2), High(3) sensitivity to compound ([2]; Melanoma M14 CL10014) | classification of cell line as Low(1), Medium(2), High(3) sensitivity to compound ([2]; Melanoma MALME-3M CL10002) | classification of cell line as Low(1), Medium(2), High(3) sensitivity to compound ([2]; Melanoma SK-MEL-2 CL10005) | classification of cell line as Low(1), Medium(2), High(3) sensitivity to compound ([2]; Melanoma SK-MEL-28 CL10008) | sensitivity classification Low(1)/Medium(2)/High(3) ([2]; NSCLC NCI-H23(I) CL1001) | sensitivity classification Low(1)/Medium(2)/High(3) ([2]; NSCLC NCI-H522 CL1003) | sensitivity classification Low(1)/Medium(2)/High(3) ([2]; Ovarian IGROV1 CL6010) | sensitivity classification Low(1)/Medium(2)/High(3) ([2]; Ovarian OVCAR-3 CL6001) | sensitivity classification Low(1)/Medium(2)/High(3) ([2]; Ovarian OVCAR-8 CL6005) | sensitivity classification Low(1)/Medium(2)/High(3) ([2]; Ovarian SK-OV-3 CL6011) | sensitivity classification Low(1)/Medium(2)/High(3) ([2]; Prostate DU-145 CL11003) | sensitivity classification Low(1)/Medium(2)/High(3) ([2]; Prostate PC-3(I) CL11001) | sensitivity classification Low(1)/Medium(2)/High(3) ([2]; Renal 786-0 CL9018) | sensitivity classification Low(1)/Medium(2)/High(3) ([2]; Renal A498 CL9013) | sensitivity classification Low(1)/Medium(2)/High(3) ([2]; Renal ACHN CL9023) | sensitivity classification Low(1)/Medium(2)/High(3) ([2]; Renal CAKI-1 CL9015) | sensitivity classification Low(1)/Medium(2)/High(3) ([2]; Renal RXF-393 CL9016) | sensitivity classification Low(1)/Medium(2)/High(3) ([2]; Renal SN12C CL9008) | sensitivity classification Low(1)/Medium(2)/High(3) ([2]; Renal TK10 CL9024)
1: classification of cell line as Low(1), Medium(2), High(3) sensitivity to compound ([2]; Breast MCF7/ADRr CL5002) | classification of cell line as Low(1), Medium(2), High(3) sensitivity to compound ([2]; Colon HCT-15 CL4015) | sensitivity classification Low(1)/Medium(2)/High(3) ([2]; NSCLC NCI-H332M CL1017) | sensitivity classification Low(1)/Medium(2)/High(3) ([2]; Ovarian OVCAR-4 CL6002) | sensitivity classification Low(1)/Medium(2)/High(3) ([2]; Ovarian OVCAR-5 CL6003) | sensitivity classification Low(1)/Medium(2)/High(3) ([2]; Renal UO-31 CL9004)
6.5: −Log (GI50) ([1]; Melanoma SK-MEL-28 CL10008)
